Measurements as given in ChEMBL document CHEMBL4507324 (2021).

Experiments:
Conditions in all cases: Compound concentration 100.0 nM
[1] = test system: Epidermal growth factor receptor (Homo sapiens), P00533 [UNDEFINED MUTATION]
[2] = biological target: Rhodopsin kinase GRK7 (Homo sapiens) (UniProt Q8WTQ7)
[3] = biological target: Receptor tyrosine-protein kinase erbB-3 (Homo sapiens) (UniProt P21860)
[4] = biological target: Tyrosine-protein kinase receptor TYRO3 (Homo sapiens) (UniProt Q06418)
[5] = biological target: Phosphatidylinositol 4,5-bisphosphate 3-kinase catalytic subunit delta isoform (Homo sapiens) (UniProt O00329)
[6] = biological target: Phosphatidylinositol 3-kinase catalytic subunit type 3 (Homo sapiens) (UniProt Q8NEB9)
[7] = biological target: Protein-tyrosine kinase 6 (Homo sapiens) (UniProt Q13882)
[8] = biological target: Serine/threonine-protein kinase SIK3 (Homo sapiens) (UniProt Q9Y2K2)
[9] = biological target: Death-associated protein kinase 2 (Homo sapiens) (UniProt Q9UIK4)
[10] = biological target: Serine/threonine-protein kinase LATS2 (Homo sapiens) (UniProt Q9NRM7)
[11] = biological target: Serine/threonine-protein kinase Nek7 (Homo sapiens) (UniProt Q8TDX7)
[12] = biological target: Serine/threonine-protein kinase Nek2 (Homo sapiens) (UniProt P51955)
[13] = biological target: Tyrosine-protein kinase JAK1 (Homo sapiens) (UniProt P23458)
[14] = biological target: Ribosomal protein S6 kinase alpha-4 (Homo sapiens) (UniProt O75676)
[15] = biological target: Serine/threonine-protein kinase WNK2 (Homo sapiens) (UniProt Q9Y3S1)
[16] = biological target: Serine/threonine-protein kinase 26 (Homo sapiens) (UniProt Q9P289)
Chain of Serine/threonine-protein kinase 26 (Homo sapiens) (Q9P289 2-416 limits assumed): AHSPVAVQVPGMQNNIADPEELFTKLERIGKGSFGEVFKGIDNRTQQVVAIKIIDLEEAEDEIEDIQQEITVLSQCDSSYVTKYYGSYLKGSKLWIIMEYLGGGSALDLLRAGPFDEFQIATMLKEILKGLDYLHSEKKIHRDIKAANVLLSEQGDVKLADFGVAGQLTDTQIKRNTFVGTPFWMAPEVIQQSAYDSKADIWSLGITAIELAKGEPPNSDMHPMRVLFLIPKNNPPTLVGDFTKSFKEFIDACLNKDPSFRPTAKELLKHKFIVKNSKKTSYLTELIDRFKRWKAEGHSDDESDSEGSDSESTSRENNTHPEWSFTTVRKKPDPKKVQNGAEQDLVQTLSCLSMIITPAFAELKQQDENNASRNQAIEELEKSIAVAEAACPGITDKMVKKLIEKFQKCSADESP

[17] = biological target: Ephrin type-A receptor 2 (Homo sapiens) (UniProt P29317)
[18] = biological target: Mitogen-activated protein kinase kinase kinase 7 (Homo sapiens) (UniProt O43318)
[19] = biological target: Cyclin-dependent kinase 15 (Homo sapiens) (UniProt Q96Q40)
[20] = biological target: Citron Rho-interacting kinase (Homo sapiens) (UniProt O14578)
[21] = test system: Receptor-type tyrosine-protein kinase FLT3 (Homo sapiens), P36888 [R834Q]
[22] = biological target: Serine/threonine-protein kinase WNK3 (Homo sapiens) (UniProt Q9BYP7)
[23] = test system: Mast/stem cell growth factor receptor Kit (Homo sapiens), P10721 [V559D,T670I]
[24] = biological target: Serine/threonine-protein kinase MARK1 (Homo sapiens) (UniProt Q9P0L2)
[25] = biological target: Phosphorylase b kinase gamma catalytic chain, skeletal muscle/heart isoform (Homo sapiens) (UniProt Q16816)
[26] = biological target: Beta-adrenergic receptor kinase 1 (Homo sapiens) (UniProt P25098)
[27] = biological target: Discoidin domain-containing receptor 2 (Homo sapiens) (UniProt Q16832)
Chain of Discoidin domain-containing receptor 2 (Homo sapiens) (Q16832 whole entry, the tested form may be a part): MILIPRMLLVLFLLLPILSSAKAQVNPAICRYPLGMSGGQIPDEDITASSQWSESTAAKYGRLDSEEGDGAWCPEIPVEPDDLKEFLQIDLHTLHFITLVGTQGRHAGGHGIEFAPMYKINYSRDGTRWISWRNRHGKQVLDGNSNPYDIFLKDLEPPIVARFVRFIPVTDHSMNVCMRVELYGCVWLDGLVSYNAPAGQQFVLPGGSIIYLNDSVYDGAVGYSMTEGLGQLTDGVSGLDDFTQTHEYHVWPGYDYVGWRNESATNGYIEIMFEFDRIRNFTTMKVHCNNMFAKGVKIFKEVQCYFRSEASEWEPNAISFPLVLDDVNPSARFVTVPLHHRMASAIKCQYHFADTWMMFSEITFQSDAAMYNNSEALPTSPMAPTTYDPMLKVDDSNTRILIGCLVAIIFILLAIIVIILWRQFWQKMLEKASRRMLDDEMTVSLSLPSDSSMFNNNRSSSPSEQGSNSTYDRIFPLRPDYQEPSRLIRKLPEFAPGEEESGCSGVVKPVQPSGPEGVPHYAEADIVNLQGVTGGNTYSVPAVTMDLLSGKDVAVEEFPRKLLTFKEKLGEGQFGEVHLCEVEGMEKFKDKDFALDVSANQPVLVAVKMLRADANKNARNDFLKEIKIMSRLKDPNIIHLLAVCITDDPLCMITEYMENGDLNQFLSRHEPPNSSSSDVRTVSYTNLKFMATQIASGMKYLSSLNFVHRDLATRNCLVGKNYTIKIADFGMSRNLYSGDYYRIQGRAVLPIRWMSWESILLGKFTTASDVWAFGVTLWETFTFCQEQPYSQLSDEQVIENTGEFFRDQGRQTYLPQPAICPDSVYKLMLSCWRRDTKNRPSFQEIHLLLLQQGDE

[28] = biological target: Ephrin type-B receptor 2 (Homo sapiens) (UniProt P29323)
[29] = test system: Phosphatidylinositol 4,5-bisphosphate 3-kinase catalytic subunit alpha isoform (Homo sapiens), P42336 [H1047Y]
[30] = biological target: Homeodomain-interacting protein kinase 4 (Homo sapiens) (UniProt Q8NE63)
[31] = test system: Fibroblast growth factor receptor 3 (Homo sapiens), P22607 [G697C]
Chain of Fibroblast growth factor receptor 3 (Homo sapiens), P22607 [G697C] (P22607 whole entry G697C): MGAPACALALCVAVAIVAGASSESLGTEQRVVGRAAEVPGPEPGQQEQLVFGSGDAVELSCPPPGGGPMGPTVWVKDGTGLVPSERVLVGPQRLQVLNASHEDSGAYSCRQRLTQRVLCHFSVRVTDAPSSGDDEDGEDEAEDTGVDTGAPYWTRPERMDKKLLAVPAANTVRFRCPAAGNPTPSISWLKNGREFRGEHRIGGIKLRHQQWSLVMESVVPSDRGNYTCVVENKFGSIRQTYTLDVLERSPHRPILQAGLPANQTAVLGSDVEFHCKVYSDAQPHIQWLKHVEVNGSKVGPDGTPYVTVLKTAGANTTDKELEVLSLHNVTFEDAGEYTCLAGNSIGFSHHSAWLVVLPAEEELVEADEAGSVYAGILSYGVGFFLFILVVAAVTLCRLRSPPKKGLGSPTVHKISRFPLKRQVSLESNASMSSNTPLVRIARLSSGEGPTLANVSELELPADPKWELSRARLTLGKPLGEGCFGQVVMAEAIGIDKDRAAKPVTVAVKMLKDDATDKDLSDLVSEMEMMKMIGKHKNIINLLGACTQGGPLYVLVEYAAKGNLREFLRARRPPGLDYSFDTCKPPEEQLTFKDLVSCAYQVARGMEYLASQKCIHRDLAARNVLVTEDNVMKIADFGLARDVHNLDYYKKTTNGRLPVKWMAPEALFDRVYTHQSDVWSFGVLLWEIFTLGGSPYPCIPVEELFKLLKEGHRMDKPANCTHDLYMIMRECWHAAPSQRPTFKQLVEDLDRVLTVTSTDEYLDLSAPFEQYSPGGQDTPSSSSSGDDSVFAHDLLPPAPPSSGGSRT

[32] = biological target: Tyrosine-protein kinase JAK3 (Homo sapiens) (UniProt P52333)
[33] = test system: Hepatocyte growth factor receptor (Homo sapiens), P08581 [Y1235D]
[34] = test system: eIF-2-alpha kinase GCN2 (Homo sapiens), Q9P2K8 [S808G]
[35] = biological target: SRSF protein kinase 1 (Homo sapiens) (UniProt Q96SB4)
[36] = test system: Tyrosine-protein kinase ABL1 (Homo sapiens), P00519 [T315I]
[37] = biological target: Serine/threonine-protein kinase Nek10 (Homo sapiens) (UniProt Q6ZWH5)
[38] = biological target: STE20/SPS1-related proline-alanine-rich protein kinase (Homo sapiens) (UniProt Q9UEW8)
[39] = biological target: Ephrin type-A receptor 5 (Homo sapiens) (UniProt P54756)
[40] = biological target: Serine/threonine-protein kinase STK11 (Homo sapiens) (UniProt Q15831)
[41] = biological target: Dual specificity protein kinase CLK2 (Homo sapiens) (UniProt P49760)
[42] = test system: Proto-oncogene tyrosine-protein kinase receptor Ret (Homo sapiens), P07949 [V804L]
[43] = biological target: ALK tyrosine kinase receptor (Homo sapiens) (UniProt Q9UM73)
Chain of ALK tyrosine kinase receptor (Homo sapiens) (Q9UM73 19-1620 limits assumed): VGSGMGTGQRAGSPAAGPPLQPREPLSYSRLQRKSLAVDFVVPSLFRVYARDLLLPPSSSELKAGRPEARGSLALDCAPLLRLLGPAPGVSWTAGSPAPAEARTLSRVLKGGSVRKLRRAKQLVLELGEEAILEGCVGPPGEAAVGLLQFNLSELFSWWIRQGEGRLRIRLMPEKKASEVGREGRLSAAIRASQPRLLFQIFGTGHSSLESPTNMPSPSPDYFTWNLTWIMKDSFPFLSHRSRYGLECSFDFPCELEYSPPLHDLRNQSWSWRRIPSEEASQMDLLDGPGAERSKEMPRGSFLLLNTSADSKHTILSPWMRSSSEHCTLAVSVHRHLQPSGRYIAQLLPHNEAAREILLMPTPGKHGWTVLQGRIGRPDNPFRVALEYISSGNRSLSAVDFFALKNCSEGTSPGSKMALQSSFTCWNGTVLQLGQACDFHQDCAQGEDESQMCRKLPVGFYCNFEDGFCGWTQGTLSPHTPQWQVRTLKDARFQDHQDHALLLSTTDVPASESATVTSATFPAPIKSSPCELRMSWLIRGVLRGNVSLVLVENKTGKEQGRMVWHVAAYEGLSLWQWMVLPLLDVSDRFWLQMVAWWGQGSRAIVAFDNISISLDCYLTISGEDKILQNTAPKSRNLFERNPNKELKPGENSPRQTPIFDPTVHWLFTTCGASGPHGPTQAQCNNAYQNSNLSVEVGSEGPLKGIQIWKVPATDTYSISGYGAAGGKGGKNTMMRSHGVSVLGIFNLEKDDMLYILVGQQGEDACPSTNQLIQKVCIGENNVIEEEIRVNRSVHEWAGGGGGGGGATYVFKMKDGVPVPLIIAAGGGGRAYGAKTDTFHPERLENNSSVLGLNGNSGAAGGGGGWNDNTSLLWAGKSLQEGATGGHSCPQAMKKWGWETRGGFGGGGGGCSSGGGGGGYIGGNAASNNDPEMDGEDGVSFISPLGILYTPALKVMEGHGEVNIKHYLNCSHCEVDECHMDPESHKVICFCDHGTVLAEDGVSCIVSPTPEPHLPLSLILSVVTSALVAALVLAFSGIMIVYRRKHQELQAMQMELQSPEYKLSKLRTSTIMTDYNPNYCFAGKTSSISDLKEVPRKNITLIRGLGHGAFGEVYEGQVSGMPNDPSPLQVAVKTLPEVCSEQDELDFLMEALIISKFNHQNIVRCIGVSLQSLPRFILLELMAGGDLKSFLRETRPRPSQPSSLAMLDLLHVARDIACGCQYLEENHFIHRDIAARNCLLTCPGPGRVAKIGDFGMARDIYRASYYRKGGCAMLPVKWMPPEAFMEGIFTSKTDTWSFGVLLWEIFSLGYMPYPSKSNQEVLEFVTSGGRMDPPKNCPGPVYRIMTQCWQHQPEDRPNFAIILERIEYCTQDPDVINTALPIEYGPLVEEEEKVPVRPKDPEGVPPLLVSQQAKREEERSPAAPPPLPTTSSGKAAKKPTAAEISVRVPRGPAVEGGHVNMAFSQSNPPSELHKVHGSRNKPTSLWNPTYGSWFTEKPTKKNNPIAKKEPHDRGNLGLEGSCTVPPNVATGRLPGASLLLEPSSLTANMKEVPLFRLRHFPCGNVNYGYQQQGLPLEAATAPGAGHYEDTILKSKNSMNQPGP

[44] = biological target: Casein kinase I isoform alpha-like (Homo sapiens) (UniProt Q8N752)
Chain of Casein kinase I isoform alpha-like (Homo sapiens) (Q8N752 whole entry, canonical isoform): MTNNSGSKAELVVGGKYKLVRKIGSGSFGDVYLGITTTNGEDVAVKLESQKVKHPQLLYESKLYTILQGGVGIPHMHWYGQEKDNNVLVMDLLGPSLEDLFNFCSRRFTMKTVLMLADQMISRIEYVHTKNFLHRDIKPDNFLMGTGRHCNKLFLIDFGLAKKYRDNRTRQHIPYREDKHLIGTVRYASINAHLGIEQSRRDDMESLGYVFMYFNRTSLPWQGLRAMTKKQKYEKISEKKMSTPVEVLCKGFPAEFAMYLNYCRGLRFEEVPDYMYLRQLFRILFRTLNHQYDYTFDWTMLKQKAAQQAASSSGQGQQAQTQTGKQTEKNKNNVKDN

[45] = biological target: Serine/threonine-protein kinase PLK4 (Homo sapiens) (UniProt O00444)
Chain of Serine/threonine-protein kinase PLK4 (Homo sapiens) (O00444 whole entry): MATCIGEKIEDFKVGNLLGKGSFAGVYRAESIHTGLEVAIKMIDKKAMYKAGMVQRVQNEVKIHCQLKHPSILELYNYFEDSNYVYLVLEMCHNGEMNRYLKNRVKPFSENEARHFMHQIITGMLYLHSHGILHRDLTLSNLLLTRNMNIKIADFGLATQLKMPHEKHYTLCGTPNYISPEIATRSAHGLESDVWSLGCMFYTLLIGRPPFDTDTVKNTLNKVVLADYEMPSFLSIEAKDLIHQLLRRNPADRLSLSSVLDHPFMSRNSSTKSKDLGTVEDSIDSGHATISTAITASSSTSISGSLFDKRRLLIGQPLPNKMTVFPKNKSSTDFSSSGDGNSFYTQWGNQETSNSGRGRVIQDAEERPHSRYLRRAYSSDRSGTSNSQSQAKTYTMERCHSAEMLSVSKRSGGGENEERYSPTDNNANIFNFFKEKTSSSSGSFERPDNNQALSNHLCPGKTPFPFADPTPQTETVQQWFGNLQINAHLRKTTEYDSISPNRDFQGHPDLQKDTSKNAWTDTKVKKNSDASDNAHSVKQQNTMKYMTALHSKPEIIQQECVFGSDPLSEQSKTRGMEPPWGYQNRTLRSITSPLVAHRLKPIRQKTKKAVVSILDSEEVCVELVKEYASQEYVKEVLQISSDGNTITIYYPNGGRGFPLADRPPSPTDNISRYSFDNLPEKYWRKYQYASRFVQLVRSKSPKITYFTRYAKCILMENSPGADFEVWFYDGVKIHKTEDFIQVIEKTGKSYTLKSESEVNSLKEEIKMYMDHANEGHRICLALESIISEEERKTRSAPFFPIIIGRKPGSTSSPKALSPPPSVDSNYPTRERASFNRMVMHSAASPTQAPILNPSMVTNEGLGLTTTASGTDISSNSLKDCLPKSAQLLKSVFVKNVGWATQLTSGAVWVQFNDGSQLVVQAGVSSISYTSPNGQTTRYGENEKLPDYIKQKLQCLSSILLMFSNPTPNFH

**Q.** With CS(=O)(=O)N1CCCC(NC(=O)[C@H](CCC2CCCCC2)NC(=O)c2ccc(CNc3ncnc4c3nnn4-c3ccccc3)cc2)C1 (stereo not given in full) [SR-301] as the molecule, how does the residual activity [1] read?
**A.** 100%

**Q.** What about the residual activity [2] of the same molecule?
**A.** 100%

**Q.** And the residual activity [3]?
**A.** 100%

**Q.** What about the residual activity [4] of the same molecule?
**A.** 90%

**Q.** And the residual activity [5]?
**A.** 91%

**Q.** What about the residual activity [6] of the same molecule?
**A.** 100%

**Q.** And the residual activity [7]?
**A.** 76%

**Q.** And the residual activity [8]?
**A.** 78%

**Q.** What about the residual activity [9] of the same molecule?
**A.** 90%

**Q.** What about the residual activity [10] of the same molecule?
**A.** 100%

**Q.** What about the residual activity [11] of the same molecule?
**A.** 88%

**Q.** And the residual activity [12]?
**A.** 100%

**Q.** What about the residual activity [13] of the same molecule?
**A.** 100%

**Q.** What about the residual activity [14] of the same molecule?
**A.** 86%

**Q.** What about the residual activity [15] of the same molecule?
**A.** 100%

**Q.** And the residual activity [16]?
**A.** 92%

**Q.** What about the residual activity [17] of the same molecule?
**A.** 100%

**Q.** And the residual activity [18]?
**A.** 100%

**Q.** What about the residual activity [19] of the same molecule?
**A.** 74%

**Q.** What about the residual activity [20] of the same molecule?
**A.** 98%

**Q.** What about the residual activity [21] of the same molecule?
**A.** 94%

**Q.** And the residual activity [22]?
**A.** 85%

**Q.** What about the residual activity [23] of the same molecule?
**A.** 100%

**Q.** And the residual activity [24]?
**A.** 74%

**Q.** What about the residual activity [25] of the same molecule?
**A.** 87%

**Q.** And the residual activity [26]?
**A.** 72%

**Q.** What about the residual activity [27] of the same molecule?
**A.** 100%

**Q.** And the residual activity [28]?
**A.** 87%

**Q.** And the residual activity [29]?
**A.** 100%

**Q.** What about the residual activity [30] of the same molecule?
**A.** 100%

**Q.** And the residual activity [31]?
**A.** 83%

**Q.** And the residual activity [32]?
**A.** 100%

**Q.** What about the residual activity [33] of the same molecule?
**A.** 98%

**Q.** What about the residual activity [34] of the same molecule?
**A.** 100%

**Q.** And the residual activity [35]?
**A.** 78%

**Q.** And the residual activity [36]?
**A.** 100%

**Q.** And the residual activity [37]?
**A.** 100%

**Q.** What about the residual activity [38] of the same molecule?
**A.** 100%

**Q.** What about the residual activity [39] of the same molecule?
**A.** 96%

**Q.** And the residual activity [40]?
**A.** 100%

**Q.** What about the residual activity [41] of the same molecule?
**A.** 100%

**Q.** And the residual activity [42]?
**A.** 83%

**Q.** What about the residual activity [43] of the same molecule?
**A.** 100%

**Q.** And the residual activity [44]?
**A.** 100%

**Q.** What about the residual activity [45] of the same molecule?
**A.** 82%

**Q.** Which residual activity [1] does the source give for CS(=O)(=O)N1CCCC(NC(=O)[C@H](CCC2CCCCC2)NC(=O)c2ccc(CNC(=O)c3cnc4ccccn34)cc2)C1 (stereo not given in full) [SR-302] here?
**A.** 66%

**Q.** What about the residual activity [2] of the same molecule?
**A.** 91%

**Q.** And the residual activity [3]?
**A.** 83%

**Q.** And the residual activity [4]?
**A.** 83%

**Q.** What about the residual activity [5] of the same molecule?
**A.** 67%

**Q.** And the residual activity [6]?
**A.** 100%

**Q.** And the residual activity [7]?
**A.** 81%

**Q.** What about the residual activity [8] of the same molecule?
**A.** 100%

**Q.** What about the residual activity [9] of the same molecule?
**A.** 94%

**Q.** What about the residual activity [10] of the same molecule?
**A.** 76%

**Q.** What about the residual activity [11] of the same molecule?
**A.** 100%

**Q.** And the residual activity [12]?
**A.** 86%

**Q.** What about the residual activity [13] of the same molecule?
**A.** 64%

**Q.** And the residual activity [14]?
**A.** 97%

**Q.** And the residual activity [15]?
**A.** 100%

**Q.** And the residual activity [16]?
**A.** 100%

**Q.** What about the residual activity [17] of the same molecule?
**A.** 100%

**Q.** What about the residual activity [18] of the same molecule?
**A.** 94%

**Q.** And the residual activity [19]?
**A.** 95%

**Q.** What about the residual activity [20] of the same molecule?
**A.** 100%

**Q.** And the residual activity [21]?
**A.** 100%

**Q.** What about the residual activity [22] of the same molecule?
**A.** 85%

**Q.** And the residual activity [23]?
**A.** 77%

**Q.** And the residual activity [24]?
**A.** 100%

**Q.** And the residual activity [25]?
**A.** 68%

**Q.** What about the residual activity [26] of the same molecule?
**A.** 88%

**Q.** And the residual activity [27]?
**A.** 0%

**Q.** What about the residual activity [28] of the same molecule?
**A.** 100%

**Q.** What about the residual activity [29] of the same molecule?
**A.** 84%

**Q.** And the residual activity [30]?
**A.** 88%

**Q.** What about the residual activity [31] of the same molecule?
**A.** 86%

**Q.** What about the residual activity [32] of the same molecule?
**A.** 69%

**Q.** And the residual activity [33]?
**A.** 99%

**Q.** And the residual activity [34]?
**A.** 100%

**Q.** What about the residual activity [35] of the same molecule?
**A.** 74%

**Q.** What about the residual activity [36] of the same molecule?
**A.** 100%

**Q.** And the residual activity [37]?
**A.** 100%

**Q.** What about the residual activity [38] of the same molecule?
**A.** 88%

**Q.** And the residual activity [39]?
**A.** 100%

**Q.** What about the residual activity [40] of the same molecule?
**A.** 51%

**Q.** What about the residual activity [41] of the same molecule?
**A.** 98%

**Q.** And the residual activity [42]?
**A.** 98%

**Q.** What about the residual activity [43] of the same molecule?
**A.** 100%

**Q.** What about the residual activity [44] of the same molecule?
**A.** 99%

**Q.** What about the residual activity [45] of the same molecule?
**A.** 100%
